From article PMC10023787, “Trio-pharmacophore DNA-encoded chemical library for simultaneous selection of fragments and linkers” (Nature Communications, 2023)

What was measured:
Assay type in all cases: binding
MMP-9 [1] = molecular target: T1, MMP-9 (Homo sapiens, UniProt P14780); experiment: De novo T-DEL selection against MMP-9, NGS decoding; conditions: for Enrichment Fold / Count: MMP9 selection; for Count: NGS sequence count per Compound ID (Figure 4a)
T1 construct: purchased Sino Biological 10327-HNAH
T1 sequence (P14780 107-707 limits assumed): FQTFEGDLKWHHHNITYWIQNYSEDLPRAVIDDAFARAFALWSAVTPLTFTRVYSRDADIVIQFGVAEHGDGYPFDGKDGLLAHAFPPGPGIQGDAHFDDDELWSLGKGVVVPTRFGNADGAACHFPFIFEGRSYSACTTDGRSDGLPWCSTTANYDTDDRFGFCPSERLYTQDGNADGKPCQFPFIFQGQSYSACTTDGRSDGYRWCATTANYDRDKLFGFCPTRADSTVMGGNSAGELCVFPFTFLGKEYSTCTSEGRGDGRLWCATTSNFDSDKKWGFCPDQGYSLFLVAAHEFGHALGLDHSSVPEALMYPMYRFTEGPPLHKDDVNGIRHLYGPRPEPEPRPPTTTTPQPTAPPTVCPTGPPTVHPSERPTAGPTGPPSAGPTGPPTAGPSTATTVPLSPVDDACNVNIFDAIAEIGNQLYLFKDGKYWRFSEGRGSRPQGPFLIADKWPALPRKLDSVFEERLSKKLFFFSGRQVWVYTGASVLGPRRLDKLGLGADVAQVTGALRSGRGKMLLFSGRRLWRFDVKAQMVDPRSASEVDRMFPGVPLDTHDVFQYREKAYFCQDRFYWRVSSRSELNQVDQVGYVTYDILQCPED
From the text: (§1) Matrix metalloproteinases (MMPs) are zinc-dependent endopeptidases capable of degrading and remodeling extracellular matrix components[46],[47]. They are attractive therapeutic targets as high expression levels were detected in various diseases, such as inflammatory diseases, and at different stages of cancers, including metastasis, invasion, and angiogenesis[47]–[53]. As shown in Supplementary Fig. 3c, we performed selections against the two gelatinases (human MMP-2 and human MMP-9) to identify binding fragments for later design and synthesis of small molecule inhibitors. After selection, the three sub-libraries were decoded, and the enrichment was calculated by dividing the post-selection fraction (count/total counts) by the pre-selection fraction (Fig. 4a and Supplementary Fig. 13).
(§2) 4 µg of MMP-2/MMP-9 was dissolved in 100 µl of selection buffer containing 25 mM Tris-base, 10 mM CaCl2, 150 mM NaCl, 0.05% Tween 20, pH 7.5. 10 µl of 4-Aminophenylmercuric acetate (APMA) (100 mM) solution was added to the protein solution and incubated at 37 °C for 1 h. After activation, the solution was added on top of 40 µl pre-washed Ni-NTA resin and incubated for 30 min on a rotary shaker. The supernatant was discarded, and the resin was washed three times with the selection buffer.
(§3) For each independent selection, three sub-libraries were mixed in the selection buffer with a final concentration of 40 nM of each sub-library in 100 µl. The mixture was heat denatured at 90 °C for 1 min and slowly cooled down to allow the formation of the trio-pharmacophore library. The dynamic dual-pharmacophore DEL was provided by DyNAbind GmbH (Merck, DYNA001).
(§4) The assembled library was incubated with the protein-bound solid support for 2 h at RT on a rotary shaker. In parallel, selection on bare solid support served as the negative control to exclude promiscuous binders on the resin. After panning, the supernatant was discarded, and the resin was washed three times with 1 ml selection buffer. Finally, 100 µl of 50 mM Tris buffer, pH 7.4 was added to resuspend the resin and the resin was incubated at 95 °C for 5 min to denature the protein, release, and collect the bound library members.
(§5) The eluted library members were subjected to sample preparation for NGS. NGS preparation was achieved by two-step PCR. First, the individual selection was indexed using primers containing unique sequences corresponding to each selection. The amplified product was purified from 2% agarose gel. Second, the purified DNA from all selections were pooled in equal amount and subjected to the 2nd PCR step to attach sequences compatible with the NGS flow cell and the sequencing primers. NGS was performed by Novogene UK with Novaseq 6000. Raw data files (fastq files) obtained were decoded using a custom python script and excel. The sequence reads corresponding to each sample was retrieved by searching for the correct index unique to each selection. Then, the code region was extracted from each sequence and assigned to the corresponding identity. The count of each code in each selection sample was obtained by looping through the total reads and counting the occurrence of each code. The enrichment fold of each compound was calculated by first, dividing the count by the total count to get the abundance, second, the abundance after the selection was divided by the abundance of pre-selection to reflect the distribution change of the compound. Next, the enrichment fold was plotted against the count for each member of the library to give the scatter plots as in Fig. 4.

MMP-9 [2] = molecular target: T1, MMP-9; experiment: Dynamic dual-pharmacophore DEL selection against MMP-9, NGS decoding; conditions: for MMP9 3L Enrichment Fold: 3L library (Supplementary fig 13); for MMP9 3L Count: 3L library; for MMP9 3L Count / MMP9 5L Count: sequence count (Supplementary fig 13); for MMP9 5L Enrichment Fold: 5L library (Supplementary fig 13); for MMP9 5L Count: 5L library
From the text: as §1, §2, §3, §4, §5

MMP-2 [3] = molecular target: T2, MMP-2 (Homo sapiens, UniProt P08253); experiment: De novo T-DEL selection against MMP-2, NGS decoding; conditions: for Enrichment Fold / Count: MMP2 selection; for Count: NGS sequence count per Compound ID (Figure 4a)
T2 construct: purchased Sino Biological 10082-HNAH
T2 sequence (P08253 110-660): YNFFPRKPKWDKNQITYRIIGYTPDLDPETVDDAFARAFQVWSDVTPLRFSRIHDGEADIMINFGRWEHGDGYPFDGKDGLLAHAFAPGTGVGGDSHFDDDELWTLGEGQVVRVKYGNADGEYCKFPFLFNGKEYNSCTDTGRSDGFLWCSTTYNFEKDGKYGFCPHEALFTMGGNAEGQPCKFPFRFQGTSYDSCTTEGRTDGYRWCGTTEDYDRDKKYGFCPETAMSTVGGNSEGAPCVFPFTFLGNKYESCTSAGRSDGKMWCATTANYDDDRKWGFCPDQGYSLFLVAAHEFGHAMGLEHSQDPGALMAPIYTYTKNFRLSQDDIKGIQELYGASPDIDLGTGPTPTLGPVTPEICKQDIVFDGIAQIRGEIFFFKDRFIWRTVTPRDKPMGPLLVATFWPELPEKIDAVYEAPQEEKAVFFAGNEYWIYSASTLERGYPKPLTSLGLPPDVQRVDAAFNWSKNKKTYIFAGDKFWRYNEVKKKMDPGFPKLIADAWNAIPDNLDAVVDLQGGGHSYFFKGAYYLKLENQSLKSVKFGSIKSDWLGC
From the text: as §1, §2, §3, §4, §5

MMP-2 [4] = molecular target: T2, MMP-2; experiment: Dynamic dual-pharmacophore DEL selection against MMP-2, NGS decoding; conditions: for MMP2 3L Enrichment Fold: 3L library (Supplementary fig 13); for MMP2 3L Count: 3L library; for MMP2 3L Count / MMP2 5L Count: sequence count (Supplementary fig 13); for MMP2 5L Enrichment Fold: 5L library (Supplementary fig 13); for MMP2 5L Count: 5L library
From the text: as §1, §2, §3, §4, §5

[5] = NGS sequence count of sub-library SL-A building block, de novo T-DEL selection against MMP-9
[6] = NGS sequence count of sub-library SL-C building block, de novo T-DEL selection against MMP-9
[7] = sub-library SL-A building block, de novo T-DEL selection against MMP-9
[8] = sub-library SL-C building block, de novo T-DEL selection against MMP-9
[9] = NGS sequence count of sub-library SL-A building block, de novo T-DEL selection against MMP-2
[10] = NGS sequence count of sub-library SL-C building block, de novo T-DEL selection against MMP-2
[11] = sub-library SL-A building block, de novo T-DEL selection against MMP-2
[12] = sub-library SL-C building block, de novo T-DEL selection against MMP-2
[13] = enrichment fold of sub-library SL-C member, MMP-9 selection, Figure 4a source data
[14] = sequence count of sub-library SL-C member, MMP-9 selection, Figure 4a source data
[15] = enrichment fold of sub-library SL-C member, MMP-2 selection, Figure 4a source data
[16] = sequence count of sub-library SL-C member, MMP-2 selection, Figure 4a source data
[17] = MMP2 3L (3' sub-library members)
[18] = MMP2 3L (3' sub-library members), NGS sequence count after selection

SMILES	Enrichment Fold (MMP-9 [2]; MMP9 selection, 3L sub-library)	Enrichment Fold (MMP-9 [2]; MMP9 selection, 5L sub-library)	Enrichment Fold (MMP-2 [4]; MMP2 selection, 3L sub-library)	Enrichment Fold (MMP-2 [4]; MMP2 selection, 5L sub-library)	MMP9 SL-A Count (MMP-9 [1]; [5])	MMP9 SL-C Count (MMP-9 [1]; [6])	MMP9 SL-A Enrichment Fold (MMP-9 [1]; [7])	MMP9 SL-C Enrichment Fold (MMP-9 [1]; [8])	MMP9 3L Enrichment Fold (MMP-9 [2]; MMP9 selection)	MMP9 3L Count (MMP-9 [2]; MMP9 selection)	MMP9 5L Enrichment Fold (MMP-9 [2]; MMP9 selection)	MMP9 5L Count (MMP-9 [2]; MMP9 selection)	MMP2 SL-A Count (MMP-2 [3]; [9])	MMP2 SL-C Count (MMP-2 [3]; [10])	MMP2 SL-A Enrichment Fold (MMP-2 [3]; [11])	MMP2 SL-C Enrichment Fold (MMP-2 [3]; [12])	MMP2 3L Enrichment Fold (MMP-2 [4]; MMP2 selection)	MMP2 3L Count (MMP-2 [4]; MMP2 selection)	MMP2 5L Enrichment Fold (MMP-2 [4]; MMP2 selection)	MMP2 5L Count (MMP-2 [4]; MMP2 selection)	further results
O=C(O)CNC(=O)NC12CC3CC(CC(C3)C1)C2 [Compound 66]	0.3958	1.238	1.69	1.932	–	–	–	–	–	–	–	–	–	–	–	–	–	–	–	–	Enrichment Fold (MMP-9 [1]; sub-library SL-A (Figure 4a)): 2.103; Count (MMP-9 [1]; sub-library SL-A): 4968; Enrichment Fold (MMP-9 [1]; sub-library SL-C (Figure 4a)): 0.3958; Count (MMP-9 [1]; sub-library SL-C): 87; Count (MMP-9 [2]; MMP9 selection, 3L sub-library, NGS sequence count): 87; Count (MMP-9 [2]; MMP9 selection, 5L sub-library, NGS sequence count): 2487; Enrichment Fold (MMP-2 [3]; sub-library SL-A (Figure 4a)): 8.24; Count (MMP-2 [3]; sub-library SL-A): 13510; Enrichment Fold (MMP-2 [3]; sub-library SL-C (Figure 4a)): 0.3913; Count (MMP-2 [3]; sub-library SL-C): 81; Count (MMP-2 [4]; MMP2 selection, 3L sub-library, NGS sequence count): 477; Count (MMP-2 [4]; MMP2 selection, 5L sub-library, NGS sequence count): 4327
O=C(O)c1cncc(O)c1 [Compound 828]	–	–	–	–	–	–	–	–	–	–	–	–	–	–	–	–	–	–	–	–	MMP9 SL-C Enrichment Fold (MMP-9 [1]; [13]): 10.2969; MMP9 SL-C Count (MMP-9 [1]; [14]): 32127; Enrichment Fold (MMP-9 [2]; MMP9 3L (3' sub-library members)): 10.2969; Count (MMP-9 [2]; MMP9 3L (3' sub-library members), NGS sequence count after selection): 32127; MMP2 SL-C Enrichment Fold (MMP-2 [3]; [15]): 4.434; MMP2 SL-C Count (MMP-2 [3]; [16]): 13025; Enrichment Fold (MMP-2 [4]; [17]): 6.248; Count (MMP-2 [4]; [18]): 14566

The next lines start with results.

Enrichment Fold (MMP-9 [2]; MMP9 selection, 3L sub-library)	Enrichment Fold (MMP-9 [2]; MMP9 selection, 5L sub-library)	Enrichment Fold (MMP-2 [4]; MMP2 selection, 3L sub-library)	Enrichment Fold (MMP-2 [4]; MMP2 selection, 5L sub-library)	MMP9 SL-A Count (MMP-9 [1]; [5])	MMP9 SL-C Count (MMP-9 [1]; [6])	MMP9 SL-A Enrichment Fold (MMP-9 [1]; [7])	MMP9 SL-C Enrichment Fold (MMP-9 [1]; [8])	MMP9 3L Enrichment Fold (MMP-9 [2]; MMP9 selection)	MMP9 3L Count (MMP-9 [2]; MMP9 selection)	MMP9 5L Enrichment Fold (MMP-9 [2]; MMP9 selection)	MMP9 5L Count (MMP-9 [2]; MMP9 selection)	MMP2 SL-A Count (MMP-2 [3]; [9])	MMP2 SL-C Count (MMP-2 [3]; [10])	MMP2 SL-A Enrichment Fold (MMP-2 [3]; [11])	MMP2 SL-C Enrichment Fold (MMP-2 [3]; [12])	MMP2 3L Enrichment Fold (MMP-2 [4]; MMP2 selection)	MMP2 3L Count (MMP-2 [4]; MMP2 selection)	MMP2 5L Enrichment Fold (MMP-2 [4]; MMP2 selection)	MMP2 5L Count (MMP-2 [4]; MMP2 selection)	SMILES	further results
0.7692	1.565	1.088	1.688	–	–	–	–	–	–	–	–	–	–	–	–	–	–	–	–	O=C(O)Cn1cnc2c(oc3ccccc32)c1=O [Compound 182]	MMP9 SL-A Count (MMP-9 [1]; NGS sequence count per SL-A member, de novo T-DEL selection against MMP-9 (Figure 4a source data)): 5190; MMP9 SL-C Count (MMP-9 [1]; NGS sequence count per SL-C member, de novo T-DEL selection against MMP-9 (Figure 4a source data)): 816; MMP9 SL-A Enrichment Fold (MMP-9 [1]; enrichment fold per SL-A member, de novo T-DEL selection against MMP-9 (Figure 4a source data)): 1.432; MMP9 SL-C Enrichment Fold (MMP-9 [1]; enrichment fold per SL-C member, de novo T-DEL selection against MMP-9 (Figure 4a source data)): 0.7692; Count (MMP-9 [2]; MMP9 selection, 3L sub-library, sequence count per compound ID): 816; Count (MMP-9 [2]; MMP9 selection, 5L sub-library, sequence count per compound ID): 4821; MMP2 SL-A Count (MMP-2 [3]; NGS sequence count per SL-A member, de novo T-DEL selection against MMP-2 (Figure 4a source data)): 3616; MMP2 SL-C Count (MMP-2 [3]; NGS sequence count per SL-C member, de novo T-DEL selection against MMP-2 (Figure 4a source data)): 971; MMP2 SL-A Enrichment Fold (MMP-2 [3]; enrichment fold per SL-A member, de novo T-DEL selection against MMP-2 (Figure 4a source data)): 1.934; MMP2 SL-C Enrichment Fold (MMP-2 [3]; enrichment fold per SL-C member, de novo T-DEL selection against MMP-2 (Figure 4a source data)): 0.9721; Count (MMP-2 [4]; MMP2 selection, 3L sub-library, sequence count per compound ID): 1179; Count (MMP-2 [4]; MMP2 selection, 5L sub-library, sequence count per compound ID): 5803
–	–	–	–	8460	1032	3.659	1.167	1.167	1032	4.572	8985	3710	1010	2.312	1.213	0.8647	991	3.023	6628	Cc1cc(=O)[nH]c(-n2nc(C)c(CCC(=O)O)c2C)n1 [Compound 693]	–
–	–	–	–	949	3684	0.9459	3.649	3.649	3684	0.7364	628	589	2395	0.846	2.519	3.194	2558	0.7494	713	NCc1c[nH]nn1 [Compound 787]	–
–	–	–	–	1891	–	1.691	–	4.359	10836	1.703	1619	1212	–	1.562	–	–	–	2.035	2158	Cn1c(O)nc2cc(C(=O)O)cnc21 [Compound 826]	MMP9 SL-C Enrichment Fold (MMP-9 [1]; [13]): 4.359; MMP9 SL-C Count (MMP-9 [1]; [14]): 10836; MMP2 SL-C Enrichment Fold (MMP-2 [3]; [15]): 2.518; MMP2 SL-C Count (MMP-2 [3]; [16]): 5893; Enrichment Fold (MMP-2 [4]; [17]): 11.3583; Count (MMP-2 [4]; [18]): 12779
